The OligoGym collection
Several values for one entry are separate records, joined by “and”; a condition that tells them apart may be missing. Equal entries are not always repeated. After the bases stand the sugars from the 5' end (letter, count) and the backbone: PS all phosphorothioate, else s phosphorothioate and o phosphodiester by linkage. Methylation of C is not given here. e = 2'-O-(2-methoxyethyl) (MOE); k = constrained ethyl (cEt); d = 2'-deoxy (DNA)

biological target: IRF4; details: ASO, MM.1R, 0.074 µM

Sequence | target mRNA inhibition [%]
CAGGTTTCATTTCATT (sugars k3 d10 k3, PS) | -1
CAGTTGTAAATGAGTC (sugars e1 k2 d9 k2 e2, PS) | 12

same assay, conditions: ASO, MM.1R, 0.222 µM

Sequence | target mRNA inhibition [%]
CAGGTTTCATTTCATT (sugars k3 d10 k3, PS) | 13
CAGTTGTAAATGAGTC (sugars e1 k2 d9 k2 e2, PS) | 34

same assay, conditions: ASO, MM.1R, 0.666 µM

Sequence | target mRNA inhibition [%]
CAGGTTTCATTTCATT (sugars k3 d10 k3, PS) | 10
CAGTTGTAAATGAGTC (sugars e1 k2 d9 k2 e2, PS) | 51

same assay, conditions: ASO, MM.1R, 1 µM

Sequence | target mRNA inhibition
CAGTGACTTGCATCCA (sugars kkdddddddddkekek, PS) | 26%
CAGTGATGTCAGGTTT (sugars e1 k2 d9 k2 e2, PS) | 20%
CAGTGATGTCAGGTTT (sugars k3 d9 k3 e1, PS) | 49%
CAGTGTGATTAATTCT (sugars k3 d10 k3, PS) | 17%
CAGTTGTAAATGAGTC (sugars e1 k2 d9 k2 e2, PS) | 55%
CATAAAGGACCCCGCC (sugars k3 d10 k3, PS) | -5%
CATTCGAGGTGATTCT (sugars k3 d10 k3, PS) | 11%
CATTGCTAGATTCTCC (sugars k3 d10 k3, PS) | 18% and 30%
CCACAATCAGCAAGTC (sugars k3 d10 k3, PS) | 0%
CCACATGTCCCGTGGG (sugars k3 d10 k3, PS) | -28%
CCACGAAGATTCAAAA (sugars k3 d10 k3, PS) | -7%
CCAGAGCAGTAAACGC (sugars k3 d10 k3, PS) | 11%
CCAGTACAGTCCACTC (sugars k3 d10 k3, PS) | -6%
CCCACATAACTCAGGC (sugars k3 d10 k3, PS) | -16%
CCGGAGGAAGTCCCCT (sugars k3 d10 k3, PS) | 0%
CCTAGGACTAAGGACA (sugars k3 d10 k3, PS) | -3%
CCTCAGTTTGTGAAGC (sugars kdddddddddkekeke, PS) | 11%
CCTCAGTTTGTGAAGC (sugars kkdddddddddkekek, PS) | 15%

same assay, conditions: ASO, MM.1R, 2 µM

Sequence | target mRNA inhibition [%]
CAGGTTTCATTTCATT (sugars k3 d10 k3, PS) | 39
CAGTTGTAAATGAGTC (sugars e1 k2 d9 k2 e2, PS) | 70

same assay, conditions: ASO, SK-MEL-28, 0.185 µM

Sequence | target mRNA inhibition [%]
CAGGTTTCATTTCATT (sugars k3 d10 k3, PS) | 15

same assay, conditions: ASO, SK-MEL-28, 4 µM

Sequence | target mRNA inhibition
CAGCACCGTGTGGAAA (sugars k3 d10 k3, PS) | 51%
CAGCTCACCGCGCTCA (sugars k3 d10 k3, PS) | 42%
CAGGACCCGGCTCCCG (sugars k3 d10 k3, PS) | 14%
CAGGTAAGGGCCCCGT (sugars k3 d10 k3, PS) | 70%
CAGGTTTCATTTCATT (sugars k3 d10 k3, PS) | 60%
CAGTCAAAGATTCATT (sugars k3 d10 k3, PS) | 40%
CAGTTTGTGAAGCATC (sugars k3 d10 k3, PS) | 78%
CATAACTCAGGCAAGG (sugars k3 d10 k3, PS) | 36%
CATCAATGATGGCAGT (sugars k3 d10 k3, PS) | 50%
CATCACTGCAGTTCAC (sugars k3 d10 k3, PS) | 47%
CATCCAAGAGTAGCGC (sugars k3 d10 k3, PS) | 73% and 63%
CATCGAACTCCTGAGT (sugars k3 d10 k3, PS) | 31%
CATGGCAGTGGAGCTC (sugars k3 d10 k3, PS) | 87% and 82%
CATTACGAGAGGGTCT (sugars k3 d10 k3, PS) | 44%
CATTATCTACCTCAGT (sugars k3 d10 k3, PS) | 35%
CATTCTAACAGATAAC (sugars k3 d10 k3, PS) | -2%
CATTGGTACGGGATTT (sugars k3 d10 k3, PS) | 16%
CATTTTATCATCCGAA (sugars k3 d10 k3, PS) | 55%
CCACAGTTGAACCCAT (sugars k3 d10 k3, PS) | 36%
CCACATAACTCAGGCA (sugars k3 d10 k3, PS) | 70%

Sequence | target mRNA inhibition
CCACCCTCCGTCTCAC (sugars k3 d10 k3, PS) | 33%
CCACCTCCATTCTAAC (sugars k3 d10 k3, PS) | -15%
CCACGAGGCACCGCAC (sugars k3 d10 k3, PS) | -19%
CCACTATTCGAGAGAA (sugars k3 d10 k3, PS) | 57%
CCAGAGCACACAGACG (sugars k3 d10 k3, PS) | 36%
CCAGAGGACCACGCCC (sugars k3 d10 k3, PS) | 28%
CCATTACTTAGACATT (sugars k3 d10 k3, PS) | 64%
CCATTAGAAAAGCAGG (sugars k3 d10 k3, PS) | 80% and 78%
CCATTGGAGGAGGGTT (sugars k3 d10 k3, PS) | 32%
CCCAGTCTACTGCTGT (sugars k3 d10 k3, PS) | 66%
CCCATCTGTCTCAGTT (sugars k3 d10 k3, PS) | 66%
CCCCAAAGAGAGTGGG (sugars k3 d10 k3, PS) | -11%
CCCCAAGGCTACAGGC (sugars k3 d10 k3, PS) | 25%
CCCGAATAGGACCCCT (sugars k3 d10 k3, PS) | 40%
CCCGAGGCCGGAGACC (sugars k3 d10 k3, PS) | 6%
CCCTTCAGCCACGAGG (sugars k3 d10 k3, PS) | 8%
CCCTTCCCCGCGACTC (sugars k3 d10 k3, PS) | 19%
CCGAAAAGACTGGAGT (sugars k3 d10 k3, PS) | 57%
CCGAACTCTCCGCCTC (sugars k3 d10 k3, PS) | 36%
CCGCAATTCTCCTCAA (sugars k3 d10 k3, PS) | 20%

Sequence | target mRNA inhibition
CCGCAGCATCGAACTC (sugars k3 d10 k3, PS) | 42%
CCGGAGACCTTGAAGA (sugars k3 d10 k3, PS) | 9%
CCGGGTGTGGCTGATC (sugars k3 d10 k3, PS) | 16%
CCGTAGTCAGCTCCAT (sugars k3 d10 k3, PS) | 73%
CCGTGAAACAGCAGTT (sugars k3 d10 k3, PS) | 56%
CCTAAATCACCCTGGT (sugars k3 d10 k3, PS) | 27%
CCTACATACATTAATA (sugars k3 d10 k3, PS) | -7%
CCTAGATAACATGAGA (sugars k3 d10 k3, PS) | 26%
CCTCAAAGCTGTGAAA (sugars k3 d10 k3, PS) | 20%
CCTCAACCGCTGAACT (sugars k3 d10 k3, PS) | 30%
CCTCAGACTGTGCTGC (sugars k3 d10 k3, PS) | 30%
CCTCAGGGAATCCCTT (sugars k3 d10 k3, PS) | 30%
CCTCCTTTAGTGTCGC (sugars k3 d10 k3, PS) | 65%
CCTCGCTCAAAGACCA (sugars k3 d10 k3, PS) | 50%
CCTGAACATGACTGGG (sugars k3 d10 k3, PS) | 38%
CCTGAGACAAGTGCTA (sugars k3 d10 k3, PS) | 43%
CCTGAGAGTAAACTTG (sugars k3 d10 k3, PS) | 18%
CCTGAGTATTTCATAG (sugars k3 d10 k3, PS) | 42%
CCTGTCACCTGGCAAC (sugars k4 d8 k4, PS) | 37%

same assay, conditions: ASO, SK-MEL-28, 5 µM

Sequence | target mRNA inhibition [%]
CAGGTTTCATTTCATT (sugars k3 d10 k3, PS) | 71

same assay, conditions: ASO, SK-MEL-28, 15 µM

Sequence | target mRNA inhibition [%]
CAGGTTTCATTTCATT (sugars k3 d10 k3, PS) | 91
